Experimental data: patent US11492348B2, “Tri-substituted aryl and heteroaryl derivatives as modulators of PI3-kinase and autophagy pathways” (Neuropore Therapies, Inc., priority 2018, dated 2022)
pIC50: −log10 of the molar value. Structures can show the parent of a compound that is named as a salt.

Key:
mTor kinase = mTor kinase (Homo sapiens (Human), UniProt P42345); experiment: mTor assay (33P-ATP filter-binding kinase assay); assay type: biochemical; conditions: 2 hours at room temperature
Description: The substrate was prepared in base reaction buffer (20 mM Hepes (pH 7.5), 10 mM MgCl2, 1 mM EGTA, 0.02% Brij35, 0.02 mg/ml BSA, 0.1 mM Na3VO4, 2 mM DTT, 1% DMSO), and required cofactors were added to the substrate solution. The mTor kinase was delivered into the substrate solution, and the solution was gently mixed. Testing compounds were dissolved in 100% DMSO to specific concentration. The serial dilution was conducted by Integra Viaflo Assist in DMSO. The compounds were delivered into the kinase reaction mixture by Acoustic technology (Echo550; nanoliter range), and the reaction mixture was incubated for 20 min at room temperature. Then, 33P-ATP (Specific activity 10 μCi/μl) was delivered into the reaction mixture to initiate the reaction. The reaction mixture was incubated for 2 hours at room temperature. Radioactivity was detected by a filter-binding method. Kinase activity data were expressed as the percent remaining kinase activity in test samples compared to vehicle (dimethyl sulfoxide) reactions. IC50 values and curve fits were obtained using Prism (GraphPad Software).

[1] = tested on: (Ser-473) pAKT in B103 (Rat Neuroblastoma) cells; experiment: pAKT protocol: loss of (Ser-473) pAKT by AlphaScreen in insulin-stimulated B103 cells; assay type: cell-based; conditions: (Ser-473) pAKT/total AKT IC50, 2-hour pretreatment, 2.5 μg/mL insulin 20 minutes
Outline: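 Rat neuroblastoma B103 cells, serum-starved 6 h, were pretreated 2 h with inhibitors (6-point 1:3 series, 0.5% DMSO) before insulin stimulation. Lysate Ser-473 pAKT and total AKT measured by AlphaScreen; pAKT/total AKT ratio fitted to 4-parameter curve, bottom constrained to reference control, top anchored to DMSO.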

PI3Kα = PI3Kα (Homo sapiens (Human), UniProt P42336); experiment: Inhibition of PI3Kα (ADP-Glo kinase activity assay, ATP to ADP conversion); assay type: biochemical; conditions: 25 μM PIP2:PS, 60 μM ATP, 30 min reaction, luminescence
Outline: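 Recombinant active PI3Kα (1.1 nM) in HEPES pH 7.5 buffer with 6 mM MgCl2 and 8 mM DTT was preincubated with compound for 0 or 3 h. The reaction ran for 30 min with 25 µM PIP2:PS and 60 µM ATP, and ADP formation was read by ADP-Glo luminescence. IC50 came from a 12-point, 1:3 series fitted with a 4-parameter model, bottom fixed to reference inhibitor controls and top floating.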

Chain of PI3Kα (P42336 whole entry): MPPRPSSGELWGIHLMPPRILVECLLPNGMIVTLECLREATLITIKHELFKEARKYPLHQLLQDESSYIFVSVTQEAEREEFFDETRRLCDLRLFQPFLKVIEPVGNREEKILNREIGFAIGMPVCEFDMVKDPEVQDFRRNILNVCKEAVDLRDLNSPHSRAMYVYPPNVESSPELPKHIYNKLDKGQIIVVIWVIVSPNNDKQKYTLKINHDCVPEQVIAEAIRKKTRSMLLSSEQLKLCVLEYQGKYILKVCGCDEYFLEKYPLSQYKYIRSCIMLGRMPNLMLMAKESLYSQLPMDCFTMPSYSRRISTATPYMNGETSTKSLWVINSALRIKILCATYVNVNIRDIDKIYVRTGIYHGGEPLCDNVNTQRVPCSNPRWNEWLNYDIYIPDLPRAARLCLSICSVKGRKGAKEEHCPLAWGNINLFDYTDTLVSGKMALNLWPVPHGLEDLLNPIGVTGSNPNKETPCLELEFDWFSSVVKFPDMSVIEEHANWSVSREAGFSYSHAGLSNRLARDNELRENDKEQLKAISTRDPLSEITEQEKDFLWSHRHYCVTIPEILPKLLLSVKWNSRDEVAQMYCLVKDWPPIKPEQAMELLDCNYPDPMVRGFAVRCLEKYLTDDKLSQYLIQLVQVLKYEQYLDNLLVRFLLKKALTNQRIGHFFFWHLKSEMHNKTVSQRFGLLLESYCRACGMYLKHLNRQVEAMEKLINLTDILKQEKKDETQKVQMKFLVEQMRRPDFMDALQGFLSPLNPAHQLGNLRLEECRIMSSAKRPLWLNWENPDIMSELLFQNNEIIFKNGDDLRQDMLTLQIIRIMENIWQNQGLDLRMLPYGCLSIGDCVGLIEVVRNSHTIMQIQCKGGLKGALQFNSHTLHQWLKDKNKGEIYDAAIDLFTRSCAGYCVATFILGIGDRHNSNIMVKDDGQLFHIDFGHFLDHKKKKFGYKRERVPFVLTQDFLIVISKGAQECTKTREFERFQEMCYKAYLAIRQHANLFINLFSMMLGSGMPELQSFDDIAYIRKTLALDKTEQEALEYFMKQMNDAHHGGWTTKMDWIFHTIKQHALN
Chain of PI3Kα (P27986 whole entry partner): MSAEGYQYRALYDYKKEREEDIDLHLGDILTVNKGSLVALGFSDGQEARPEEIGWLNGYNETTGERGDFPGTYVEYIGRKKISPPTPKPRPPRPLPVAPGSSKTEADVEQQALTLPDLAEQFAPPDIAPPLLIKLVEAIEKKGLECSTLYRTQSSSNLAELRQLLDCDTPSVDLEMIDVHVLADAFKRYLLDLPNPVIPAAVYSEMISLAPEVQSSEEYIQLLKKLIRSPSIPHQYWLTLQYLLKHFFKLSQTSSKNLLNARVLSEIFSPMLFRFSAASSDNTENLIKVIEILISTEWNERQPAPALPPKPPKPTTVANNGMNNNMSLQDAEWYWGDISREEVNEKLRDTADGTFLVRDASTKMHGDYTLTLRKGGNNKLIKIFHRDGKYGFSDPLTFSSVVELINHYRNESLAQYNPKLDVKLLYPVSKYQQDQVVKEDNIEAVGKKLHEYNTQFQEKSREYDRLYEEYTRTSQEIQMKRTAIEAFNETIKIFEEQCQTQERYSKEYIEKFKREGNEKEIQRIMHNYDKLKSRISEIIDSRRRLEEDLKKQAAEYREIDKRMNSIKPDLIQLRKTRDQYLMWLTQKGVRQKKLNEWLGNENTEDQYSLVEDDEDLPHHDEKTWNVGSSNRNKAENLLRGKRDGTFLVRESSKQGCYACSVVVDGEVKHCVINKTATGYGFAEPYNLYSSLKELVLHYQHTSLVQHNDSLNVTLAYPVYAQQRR

pIC50 (mTor kinase) | pIC50 [1] | PI3Ka IC50 (PI3Kα) | pIC50 (PI3Kα; read-out: PI3Ka IC50) | Compound
6.43 | 6.35 | 75 nM | – | Cc1ccccc1Oc1cc(-c2cnc(N)nc2)nc(N2CCOCC2)c1 [Compound 137, 5-(6-morpholino-4-(o-tolyloxy)pyridin-2-yl)pyrimidin-2-amine]
5.27 | 4.84 | 380 nM | – | Nc1ncc(-c2cc(N3CCOCC3)cc(S(=O)(=O)c3cccc4c3OCC4)c2)cn1 [Compound 111, 5-(3-((2,3-dihydrobenzofuran-7-yl)sulfonyl)-5-morpholinophenyl)pyrimidin-2-amine]
6.32 | 6.19 | 91 nM | – | Nc1ncc(-c2cc(Oc3ccccc3)cc(N3CCOCC3)n2)cn1 [Compound 120, 5-(6-morpholino-4-phenoxypyridin-2-yl)pyrimidin-2-amine]
5.00 | 5.06 | 400 nM | – | Nc1ncc(-c2cc(N3CCOCC3)cc(S(=O)(=O)c3cccc4ccoc34)c2)cn1 [Compound 110, 5-(3-(benzofuran-7-ylsulfonyl)-5-morpholinophenyl)pyrimidin-2-amine]
5.92 | 5.33 | 47 nM | – | CC(=O)N1CC(S(=O)(=O)c2cc(-c3cnc(N)nc3)cc(N3CCOCC3)c2)C1 [Compound 68, 1-(3-((3-(2-aminopyrimidin-5-yl)-5-morpholinophenyl)sulfonyl)azetidin-1-yl)ethan-1-one]
5.21 | 4.70 | 260 nM | – | Nc1ncc(-c2cc(N3CCOCC3)cc(S(=O)(=O)Cc3ccc4[nH]ccc4c3)c2)cn1 [Compound 56, 5-(3-(((1H-indol-5-yl)methyl)sulfonyl)-5-morpholinophenyl)pyrimidin-2-amine]
6.15 | 5.79 | 79 nM | – | COc1ccccc1Oc1cc(-c2cnc(N)nc2)nc(N2CCOCC2)c1 [Compound 135, 5-(4-(2-methoxyphenoxy)-6-morpholinopyridin-2-yl)pyrimidin-2-amine]
5.84 | 6.00 | 210 nM | – | Nc1ncc(-c2cc(N3CCOCC3)cc(S(=O)(=O)C(F)(F)c3ccccc3)c2)cn1 [Compound 87, 5-(3-((difluoro(phenyl)methyl)sulfonyl)-5-morpholinophenyl)pyrimidin-2-amine]
5.52 | 5.07 | 100 nM | – | Nc1ncc(-c2cc(N3CCOCC3)cc(S(=O)(=O)Cc3ccccc3)c2)cn1 [Compound 23, 5-(3-(benzylsulfonyl)-5-morpholinophenyl)pyrimidin-2-amine]
5.96 | 6.72 | 14 nM | – | Nc1ncc(-c2cc(C(=O)c3ccccc3Cl)cc(N3CCOCC3)n2)cn1 [Compound 138, (2-(2-aminopyrimidin-5-yl)-6-morpholinopyridin-4-yl)(2-chlorophenyl)methanone]
5.70 | 5.12 | 610 nM | – | Nc1ncc(-c2cc(N3CCOCC3)cc(S(=O)(=O)c3ccccc3)c2)cn1 [Compound 1, 5-(3-morpholino-5-(phenylsulfonyl)phenyl)pyrimidin-2-amine]
4.80 | 4.43 | 2900 nM | – | O=S(=O)(c1ccccc1)c1cc(-c2cnc(NCCO)nc2)cc(N2CCOCC2)c1 [Compound 19, 2-((5-(3-morpholino-5-(phenylsulfonyl)phenyl)pyrimidin-2-yl)amino)ethan-1-ol]
6.89 | 6.42 | 56 nM | – | Nc1ncc(-c2cc(C3(c4ccccc4)CC3)cc(N3CCOCC3)n2)cn1 [Compound 127, 5-(6-morpholino-4-(1-phenylcyclopropyl)pyridin-2-yl)pyrimidin-2-amine]
5.00 | 4.54 | 910 nM | – | N#Cc1cccc(S(=O)(=O)c2cc(-c3cnc(N)nc3)cc(N3CCOCC3)c2)c1 [Compound 13, 3-((3-(2-aminopyrimidin-5-yl)-5-morpholinophenyl)sulfonyl)benzonitrile]
4.00 | 4.00 | 9000 nM | – | Cc1cnccc1-c1cc(N2CCOCC2)cc(S(=O)(=O)c2ccccc2)c1 [Compound 12, 4-(3-(3-methylpyridin-4-yl)-5-(phenylsulfonyl)phenyl)morpholine]
4.96 | 4.96 | 370 nM | – | Nc1ncc(-c2cc(N3CCOCC3)cc(S(=O)(=O)Cc3ccc(F)cc3)c2)cn1 [Compound 29, 5-(3-((4-fluorobenzyl)sulfonyl)-5-morpholinophenyl)pyrimidin-2-amine]
6.36 | 6.40 | 12 nM | – | Nc1ncc(-c2cc(C(F)(F)C3CCOCC3)cc(N3CCOCC3)n2)cn1 [Compound 133, 5-(4-(difluoro(tetrahydro-2H-pyran-4-yl)methyl)-6-morpholinopyridin-2-yl)pyrimidin-2-amine]
5.28 | 5.21 | 270 nM | – | Nc1ncc(-c2cc(N3CCOCC3)cc(S(=O)(=O)Cc3ccc(F)cc3F)c2)cn1 [Compound 26, 5-(3-((2,4-difluorobenzyl)sulfonyl)-5-morpholinophenyl)pyrimidin-2-amine]
5.73 | 5.19 | 330 nM | – | Nc1ncc(-c2cc(N3CCOCC3)cc(S(=O)(=O)C3CCOCC3)c2)cn1 [Compound 62, 5-(3-morpholino-5-((tetrahydro-2H-pyran-4-yl)sulfonyl)phenyl)pyrimidin-2-amine]
5.46 | 4.70 | – | 6.32 | CS(=O)(=O)Nc1ccc(CS(=O)(=O)c2cc(-c3cnc(N)nc3)cc(N3CCOCC3)c2)cc1 [57 (as a TFA salt), N-(4-(((3-(2-aminopyrimidin-5-yl)-5-morpholinophenyl)sulfonyl)methyl)phenyl) methanesulfonamide]
5.19 | < 4.30 | 470 nM | – | Nc1ncc(-c2cc(N3CCOCC3)cc(S(=O)(=O)Cc3c[nH]c4ccccc34)c2)cn1 [48 (as a TFA salt), 5-(3-(((1H-indol-3-yl)methyl)sulfonyl)-5-morpholinophenyl)pyrimidin-2-amine]
6.57 | 6.09 | 210 nM | – | CC(c1ccccc1)c1cc(-c2cnc(N)nc2)nc(N2CCOCC2)c1 (stereo not drawn) [Compound 125, 5-(6-morpholino-4-(1-phenylethyl)pyridin-2-yl)pyrimidin-2-amine]
6.23 | 5.61 | 130 nM | – | CC(C)(C)OC(=O)N1CC(S(=O)(=O)c2cc(-c3cnc(N)nc3)cc(N3CCOCC3)c2)C1 [Compound 54, tert-butyl 3-((3-(2-aminopyrimidin-5-yl)-5-morpholinophenyl)sulfonyl) azetidine-1-carboxylate]
5.44 | 5.04 | 740 nM | – | Nc1ncc(-c2cc(N3CCOCC3)cc(S(=O)(=O)CC3CCOC3)c2)cn1 (stereo not drawn) [Compound 38, 5-(3-morpholino-5-(((tetrahydrofuran-3-yl)methyl)sulfonyl)phenyl)pyrimidin-2-amine]
5.36 | 5.43 | 67 nM | – | Nc1cc(Cl)c(-c2cc(N3CCOCC3)cc(S(=O)(=O)[C@@H]3CCOC3)c2)cn1 [Compound 107, (R)-4-chloro-5-(3-morpholino-5-((tetrahydrofuran-3-yl)sulfonyl)phenyl)pyridin-2-amine]
7.20 | 6.24 | 66 nM | – | Nc1ncc(-c2cc(S(=O)(=O)c3ccccc3)cc(N3CCOCC3)n2)cn1 [Compound 115, 5-(6-morpholino-4-(phenylsulfonyl)pyridin-2-yl)pyrimidin-2-amine]
6.25 | 6.34 | 46 nM | – | Nc1ncc(-c2cc(C(F)(F)c3ccccc3)cc(N3CCOCC3)n2)cn1 [Compound 123, 5-(4-(Difluoro(phenyl)methyl)-6-morpholinopyridin-2-yl)pyrimidin-2-amine]
6.23 | 6.25 | 23 nM | – | Nc1ncc(-c2cc(C(=O)C3CCOCC3)cc(N3CCOCC3)n2)cn1 [Compound 131, (2-(2-aminopyrimidin-5-yl)-6-morpholinopyridin-4-yl)(tetrahydro-2H-pyran-4-yl)methanone]
5.12 | 5.40 | 7600 nM | – | Nc1cc(C(F)(F)F)c(-c2cc(N3CCOCC3)cc(S(=O)(=O)C3CCOC3)c2)cn1 (stereo not drawn) [Compound 70, 5-(3-morpholino-5-((tetrahydrofuran-3-yl)sulfonyl)phenyl)-4-(trifluoromethyl)pyridin-2-amine]
